Assays:
K-Ras G12D = target: T1, K-Ras G12D (Homo sapiens, UniProt P01116, G12D); assay: HTRF resonance energy transfer assay, K-Ras G12D / SOS1 interaction; format: biochemical; details: HTRF assay of Example 5; read-out: IC50 against K-Ras G12D
T1 construct: made in house; host or cells: E. coli BL21 (DE3)
Summary of the method: (§1)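 Buffer about 5 mM HEPES pH 7.4 with ~150 mM NaCl, ~1 mM DTT, 0.05% BSA, 0.0025% (v/v) Igepal. Protein constructs used at molarity matching the IC50 range studied (e.g. ~500 nM). FRET between tagged K-Ras and hSOS1 measured after short incubation.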

K-Ras G12S = target: T2, K-Ras G12S (Homo sapiens, UniProt P01116, G12S); assay: HTRF resonance energy transfer assay, K-Ras G12S / SOS1 interaction; format: biochemical; details: HTRF assay of Example 5; read-out: IC50 against K-Ras G12S
T2 construct: made in house; host or cells: E. coli BL21 (DE3)
T2 sequence (P01116 1-188 isoform P01116-2 G12S): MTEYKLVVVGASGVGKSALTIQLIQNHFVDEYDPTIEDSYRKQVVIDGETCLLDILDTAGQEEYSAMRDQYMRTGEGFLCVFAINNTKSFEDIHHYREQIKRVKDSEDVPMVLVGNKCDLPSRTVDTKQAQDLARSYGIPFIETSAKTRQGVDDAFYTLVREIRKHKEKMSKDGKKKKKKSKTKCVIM
Summary of the method: as §1

K-Ras G12V = target: T3, K-Ras G12V (Homo sapiens, UniProt P01116, G12V); assay: HTRF resonance energy transfer assay, K-Ras G12V / SOS1 interaction; format: biochemical; details: HTRF assay of Example 5; read-out: IC50 against K-Ras G12V
T3 construct: made in house; host or cells: E. coli BL21 (DE3)
T3 sequence (P01116 1-188 isoform P01116-2 G12V): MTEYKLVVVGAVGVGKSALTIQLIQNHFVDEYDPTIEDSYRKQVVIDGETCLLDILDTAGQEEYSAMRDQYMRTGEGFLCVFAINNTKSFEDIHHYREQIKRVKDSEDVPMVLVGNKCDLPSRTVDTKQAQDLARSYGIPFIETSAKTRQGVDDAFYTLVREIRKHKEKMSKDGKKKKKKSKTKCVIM
Summary of the method: as §1

K-Ras WT = target: T4, K-Ras WT (Homo sapiens, UniProt P01116); assay: HTRF resonance energy transfer assay, K-Ras WT / SOS1 interaction; format: biochemical; details: HTRF assay of Example 5; read-out: IC50 against K-Ras WT
T4 construct: made in house; host or cells: E. coli BL21 (DE3)
T4 sequence (P01116 1-188 isoform P01116-2): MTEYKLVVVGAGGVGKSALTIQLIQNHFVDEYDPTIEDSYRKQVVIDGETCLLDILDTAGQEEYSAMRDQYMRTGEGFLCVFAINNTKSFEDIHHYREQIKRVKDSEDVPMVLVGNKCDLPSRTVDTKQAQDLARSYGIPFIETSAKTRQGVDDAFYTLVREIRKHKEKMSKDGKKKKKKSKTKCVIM
Summary of the method: as §1

GP2D cells = assay: Ras cellular assay, growth of cells with K-Ras G12D mutation (CellTiter-Glo); format: cell-based; details: cell growth, Example 9, G12D mutation, read-out: IC50 against GP2D cells
SW620 cells = assay: Ras cellular assay, growth of cells with K-Ras G12V mutation (CellTiter-Glo); format: cell-based; details: Homo sapiens, SW-620; cell growth, Example 9, G12V mutation; read-out: IC50 against SW620 cells
Summary of the method: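 IC50 values came from a four-parameter fit of CellTiter-Glo viability, read roughly 6 days after dosing with e.g. a 10-point threefold dilution series. G12V-mutant SW620 cells (e.g. 800 per well) had been plated the previous day in RPMI-1640/10% heat-inactivated FBS, on tissue culture-treated or ultra-low attachment plates.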

T1 sequence (P01116 1-188 isoform P01116-2 G12D): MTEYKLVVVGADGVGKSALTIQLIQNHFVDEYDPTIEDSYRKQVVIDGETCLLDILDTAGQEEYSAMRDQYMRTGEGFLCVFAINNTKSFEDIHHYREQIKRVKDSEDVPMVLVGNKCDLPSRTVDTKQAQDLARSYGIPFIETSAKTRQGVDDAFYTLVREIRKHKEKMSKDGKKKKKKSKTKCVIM

SMILES | IC50 (K-Ras G12D) [nM] | IC50 (K-Ras G12S) [nM] | IC50 (K-Ras G12V) [nM] | IC50 (K-Ras WT) [nM] | IC50 (GP2D cells) [nM] | IC50 (SW620 cells) [nM]
N#Cc1c(N)sc2c(F)ccc(-c3c(Cl)c4c5c(nc(OC[C@@]67CCCN6C[C@H](F)C7)nc5c3F)N(CCC(F)F)[C@@H](C3CC3)CO4)c12 [Compound 668, 2-amino-4-((S)-8-chloro-5-cyclopropyl-4-(3,3-difluoropropyl)-10-fluoro-2-(((2R,7aS)-2-fluorotetrahydro-1H-pyrrolizin-7a(5H)-yl)methoxy)-5,6-dihydro-4H-[1,4]oxazepino[5,6,7-de]quinazolin-9-yl)-7-fluorobenzo[b]thiophene-3-carbonitrile] | < 100 | < 100 | < 100 | < 100 | < 500 | < 5000
N#Cc1c(N)sc2c(F)ccc(-c3c(Cl)c4c5c(nc(OC[C@@]67CCCN6C[C@H](F)C7)nc5c3F)N(CC(F)F)[C@@H](C(F)(F)F)CO4)c12 [Compound 672, 2-amino-4-((R)-8-chloro-4-(2,2-difluoroethyl)-10-fluoro-2-(((2R,7aS)-2-fluorotetrahydro-1H-pyrrolizin-7a(5H)-yl)methoxy)-5-(trifluoromethyl)-5,6-dihydro-4H-[1,4]oxazepino[5,6,7-de]quinazolin-9-yl)-7-fluorobenzo[b]thiophene-3-carbonitrile] | < 100 | < 100 | < 100 | < 100 | < 500 | < 5000
N#Cc1c(N)sc2c(F)ccc(-c3c(Cl)c4c5c(nc(OC[C@@]67CCCN6C[C@H](F)C7)nc5c3F)N(CC(F)F)[C@H](C3(C#N)CC3)CO4)c12 [Compound 722, 2-amino-4-((R)-8-chloro-5-(1-cyanocyclopropyl)-4-(2,2-difluoroethyl)-10-fluoro-2-(((2R,7aS)-2-fluorotetrahydro-1H-pyrrolizin-7a(5H)-yl)methoxy)-5,6-dihydro-4H-[1,4]oxazepino[5,6,7-de]quinazolin-9-yl)-7-fluorobenzo[b]thiophene-3-carbonitrile] | < 100 | < 100 | < 100 | < 100 | < 500 | < 5000
C[C@H]1C(C(F)F)Oc2c(Cl)c(-c3ccc(F)c4sc(N)c(C#N)c34)c(F)c3nc(OC[C@@]45CCCN4C[C@H](F)C5)nc(c23)N1CC(F)F (stereo partly drawn) [Compound 723, 2-amino-4-((5S)-8-chloro-4-(2,2-difluoroethyl)-6-(difluoromethyl)-10-fluoro-2-(((2R,7aS)-2-fluorotetrahydro-1H-pyrrolizin-7a(5H)-yl)methoxy)-5-methyl-5,6-dihydro-4H-[1,4]oxazepino[5,6,7-de]quinazolin-9-yl)-7-fluorobenzo[b]thiophene-3-carbonitrile] | < 100 | < 100 | < 100 | < 100 | < 500 | < 5000
CC(O)C1COc2c(Cl)c(-c3ccc(F)c4sc(N)c(C#N)c34)c(F)c3nc(OC[C@@]45CCCN4C[C@H](F)C5)nc(c23)N1CCN(C)C (stereo partly drawn) [Compound 745, 2-amino-4-(8-chloro-4-(2-(dimethylamino)ethyl)-10-fluoro-2-(((2R,7aS)-2-fluorotetrahydro-1H-pyrrolizin-7a(5H)-yl)methoxy)-5-(1-hydroxyethyl)-5,6-dihydro-4H-[1,4]oxazepino[5,6,7-de]quinazolin-9-yl)-7-fluorobenzo[b]thiophene-3-carbonitrile] | < 100 | < 100 | < 100 | < 100 | < 500 | < 5000
N#Cc1c(N)sc2c(F)ccc(-c3c(Cl)c4c5c(nc(OC[C@@]67CCCN6C[C@H](F)C7)nc5c3F)N(CC(F)F)CCO4)c12 [Compound 748, 2-amino-4-(8-chloro-4-(2,2-difluoroethyl)-10-fluoro-2-(((2R,7aS)-2-fluorotetrahydro-1H-pyrrolizin-7a(5H)-yl)methoxy)-5,6-dihydro-4H-[1,4]oxazepino[5,6,7-de]quinazolin-9-yl)-7-fluorobenzo[b]thiophene-3-carbonitrile] | < 100 | < 100 | < 100 | < 100 | < 500 | < 5000

From patent publication US12209102B2, “Heterocyclic compounds and uses thereof” (Kumquat Biosciences Inc., priority 2022, dated 2025)
